Experimental data from patent US20230210999A1, “TARGETED PROTEASE DEGRADATION (TED) PLATFORM” (EUBULUS BIOTHERAPEUTICS INC., priority 2020, published 2023).
Like-named read-outs stand apart in the source and are kept apart here.

Columns and labels:
MV4;11 cells = test: Cell proliferation experiment (Alamar blue, 72 h), MV4;11; format: cell-based, human; conditions: Homo sapiens, MV4-11, 72 h, read-out: Inhibitory activity IC50 of tested compounds on MV4;11 cells
Method in brief: (§1)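 Viability measured by Alamar blue fluorescence after 72 h culture with compound (5-fold serial dilutions, two wells each) added to log-phase cells. IC50 derived from a Min/Max/Slope logistic equation.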

Daudi cells = test: Cell proliferation experiment, Daudi; format: cell-based, human; conditions: Homo sapiens, Daudi, 72 h, read-out: Inhibitory activity IC50 of tested compounds on Daudi cells
Method in brief: as §1

NCIH82 cells = test: Cell proliferation experiment, NCI-H82; format: cell-based, human; conditions: Homo sapiens, NCI-H82, 72 h, read-out: Inhibitory activity IC50 of tested compounds on NCIH82 cells
Method in brief: as §1

HT-29 cells = test: Cell proliferation experiment, HT-29; format: cell-based; conditions: Homo sapiens, read-out: Inhibitory activity IC50 of tested compounds on HT-29 cells
Procedure: (§2) Reagents: RPMI-1640 medium, McCoy's 5A medium, IMDM medium, MEM medium, L-15 medium, fetal bovine serum. Penicillin-Streptomycin double antibody, trypsin, etc., 2-mercaptoethanol, NEAA, pyruvate, etc.
(§3) The cells were cultured in conventional ways, and the cells should be passed at least 2 generations before plating. Cells at the logarithmic growth phase were collected, prepared into single cell suspensions and counted. The concentration of cells was adjusted to the desired concentration, and cells were inoculated into a 96-well cell culture plate at 100 μl per well. 100 μL of complete medium of the test compound were added to each well, set up 2 duplicate wells for each concentration, and diluted with a 5-fold gradient, and continued to culture for 72 h. All cells were subjected to IC50 test for corresponding samples. The experimental results are shown in Test Example 4.
(§4) The fluorescence intensity of each well was detected using the Alarm blue method, and IC50 was calculated.
(§5) IC50 was calculated according to the following formula:
(§6) Y=Max+(Min−Max)/[1+(X/IC50)×Slope]
(§7) wherein Min, Max and Slope represent the minimum, maximum and slope respectively.

U-87MG cells = test: Cell proliferation experiment, U-87MG; format: cell-based; conditions: Homo sapiens, 72 h, read-out: Inhibitory activity IC50 of tested compounds on U-87MG cells
Procedure: as §2, §3, §4, §5, §6, §7

Row | Compound | IC50 (MV4;11 cells) | IC50 (Daudi cells) | IC50 (NCIH82 cells) | IC50 (HT-29 cells; HT-29, 72 h) | IC50 (U-87MG cells; U-87 MG) | IC50 (MV4;11 cells; MV4;11 cells, 72 h) | IC50 (Daudi cells; Daudi cells) | IC50 (NCIH82 cells; NCIH82 cells, 72 h) | IC50 (HT-29 cells; HT-29 cells, 72 h) | IC50 (U-87MG cells; U-87MG cells)
1 | CC[C@@H]1C(=O)N(C)c2cnc(Nc3ccc(C(=O)NC4CCN(CCOCCNCC(=O)NC(C(=O)N5C[C@H](O)C[C@H]5C(=O)NCc5ccc(-c6scnc6C)cc5)C(C)(C)C)CC4)cc3OC)nc2N1C1CCCC1 (some centres unmarked) [Compound 859] | 100 to 1000 nM | > 1000 nM | > 1000 nM | > 1000 nM | > 1000 nM |  |  |  |  | 
2 | CC[C@@H]1C(=O)N(C)c2cnc(Nc3ccc(C(=O)NC4CCN(CCOCC[C@@H](N)C(=O)Nc5cccc6c5CN(C5CCC(=O)NC5=O)C6=O)CC4)cc3OC)nc2N1C1CCCC1 (some centres unmarked) [Compound 863] |  |  |  |  |  | 100 to 1000 nM | 100 to 1000 nM | ≤ 1000 nM | > 1000 nM | > 1000 nM
3 | CC[C@@H]1C(=O)N(C)c2cnc(Nc3ccc(C(=O)NC4CCN(CCOCCO)CC4)cc3OC)nc2N1C1CCCC1 [Compound 864] |  |  |  |  |  | ≤ 100 nM | ≤ 100 nM | ≤ 1000 nM | ≤ 300 nM | ≤ 100 nM
4 | CC[C@@H]1C(=O)N(C)c2cnc(Nc3ccc(C(=O)NC4CCN(CCO)CC4)cc3OC)nc2N1C1CCCC1 [Compound 865] |  |  |  |  |  | ≤ 100 nM | ≤ 100 nM | ≤ 1000 nM | ≤ 300 nM | ≤ 100 nM
5 | CC[C@@H]1C(=O)N(C)c2cnc(Nc3ccc(C(=O)NC4CCN(CCOCCN)CC4)cc3OC)nc2N1C1CCCC1 [Compound 866] |  |  |  |  |  | ≤ 100 nM | ≤ 100 nM | ≤ 1000 nM | ≤ 300 nM | 100 to 500 nM
6 | CC[C@@H]1C(=O)N(C)c2cnc(Nc3ccc(C(=O)NC4CCN(CCOCCNC5(C(=O)Nc6cccc7c6CN(C6CCC(=O)NC6=O)C7=O)CC5)CC4)cc3OC)nc2N1C1CCCC1 (some centres unmarked) [Compound 867] |  |  |  |  |  | ≤ 100 nM | ≤ 100 nM | ≤ 1000 nM | 300 to 1000 nM | 500 to 1000 nM
7 | CC[C@@H]1C(=O)N(C)c2cnc(Nc3ccc(C(=O)NC4CCN(CCOCCN5CC(Nc6cccc7c6C(=O)N(C6CCC(=O)NC6=O)C7=O)C5)CC4)cc3OC)nc2N1C1CCCC1 (some centres unmarked) [Compound 868] |  |  |  |  |  | 100 to 1000 nM | 100 to 1000 nM | ≤ 1000 nM | > 1000 nM | 500 to 1000 nM
8 | CC[C@@H]1C(=O)N(C)c2cnc(Nc3ccc(C(=O)NC4CCN(CCOCCNCC(O)C#Cc5cccc6c5CN(C5CCC(=O)NC5=O)C6=O)CC4)cc3OC)nc2N1C1CCCC1 (some centres unmarked) [Compound 869] |  |  |  |  |  | ≤ 100 nM | 100 to 1000 nM | ≤ 1000 nM | > 1000 nM | 100 to 500 nM
9 | CC[C@@H]1C(=O)N(C)c2cnc(Nc3ccc(C(=O)NC4CCN(CCOC[C@@H](N)C(=O)Nc5cccc6c5CN(C5CCC(=O)NC5=O)C6=O)CC4)cc3OC)nc2N1C1CCCC1 (some centres unmarked) [Compound 870] |  |  |  |  |  | 100 to 1000 nM | > 1000 nM | > 1000 nM | > 1000 nM | > 1000 nM
10 | CC[C@@H]1C(=O)N(C)c2cnc(Nc3ccc(C(=O)NC4CCN(CCOCCOC[C@H](N)C(=O)Nc5cccc6c5CN(C5CCC(=O)NC5=O)C6=O)CC4)cc3OC)nc2N1C1CCCC1 (some centres unmarked) [Compound 871] |  |  |  |  |  | 100 to 1000 nM | > 1000 nM | ≤ 1000 nM | > 1000 nM | > 1000 nM
11 | CC[C@@H]1C(=O)N(C)c2cnc(Nc3ccc(C(=O)NC4CCN(CCOCCOC[C@@H](N)C(=O)Nc5cccc6c5CC(C5CCC(=O)NC5=O)C6=O)CC4)cc3OC)nc2N1C1CCCC1 (some centres unmarked) [Compound 872] |  |  |  |  |  | 100 to 1000 nM | > 1000 nM | ≤ 1000 nM | > 1000 nM | > 1000 nM
12 | CC[C@@H]1C(=O)N(C)c2cnc(Nc3ccc(C(=O)NC4CCN(CCOCCNCC#Cc5cccc6c5CN(C5CCC(=O)NC5=O)C6=O)CC4)cc3OC)nc2N1C1CCCC1 (some centres unmarked) [Compound 873] |  |  |  |  |  | ≤ 100 nM | 100 to 1000 nM | ≤ 1000 nM | ≤ 300 nM | 100 to 500 nM
13 | CC[C@@H]1C(=O)N(C)c2cnc(Nc3ccc(C(=O)NC4CCN(C[C@H](N)COCC#Cc5cccc6c5CN(C5CCC(=O)NC5=O)C6=O)CC4)cc3OC)nc2N1C1CCCC1 (some centres unmarked) [Compound 876] |  |  |  |  |  | ≤ 100 nM | 100 to 1000 nM | > 1000 nM | > 1000 nM | 100 to 500 nM
14 | CC[C@@H]1C(=O)N(C)c2cnc(Nc3ccc(C(=O)NCCCNCCOCCCC#Cc4cccc5c4CN(C4CCC(=O)NC4=O)C5=O)cc3OC)nc2N1C1CCCC1 (some centres unmarked) [Compound 881] |  |  |  |  |  | 100 to 1000 nM | > 1000 nM | > 1000 nM | > 1000 nM | > 1000 nM
15 | CC[C@@H]1C(=O)N(C)c2cnc(Nc3ccc(C(=O)NCCCOCCOCCCNCCC#Cc4cccc5c4CN(C4CCC(=O)NC4=O)C5=O)cc3OC)nc2N1C1CCCC1 (some centres unmarked) [Compound 882] |  |  |  |  |  | ≤ 100 nM | 100 to 1000 nM | ≤ 1000 nM | 300 to 1000 nM | ≤ 100 nM
16 | CC[C@@H]1C(=O)N(C)c2cnc(Nc3ccc(C(=O)NCCCNCCOCCC#Cc4cccc5c4CN(C4CCC(=O)NC4=O)C5=O)cc3OC)nc2N1C1CCCC1 (some centres unmarked) [Compound 885] |  |  |  |  |  | ≤ 100 nM | 100 to 1000 nM | > 1000 nM | > 1000 nM | 100 to 500 nM
17 | CC[C@@H]1C(=O)N(C)c2cnc(Nc3ccc(C(=O)NCCCN(C)CCOCCC#Cc4cccc5c4CN(C4CCC(=O)NC4=O)C5=O)cc3OC)nc2N1C1CCCC1 (some centres unmarked) [Compound 886] |  |  |  |  |  | ≤ 100 nM | 100 to 1000 nM | > 1000 nM | > 1000 nM | ≤ 100 nM
18 | CC[C@@H]1C(=O)N(C)c2cnc(Nc3ccc(C(=O)NCCOCCOCCCNCCC#Cc4cccc5c4CN(C4CCC(=O)NC4=O)C5=O)cc3OC)nc2N1C1CCCC1 (some centres unmarked) [Compound 894] |  |  |  |  |  | ≤ 100 nM | 100 to 1000 nM | > 1000 nM | > 1000 nM | 100 to 500 nM
19 | CC[C@@H]1C(=O)N(C)c2cnc(Nc3ccc(C(=O)NCCCNCCOCCOCCC#Cc4cccc5c4CN(C4CCC(=O)NC4=O)C5=O)cc3OC)nc2N1C1CCCC1 (some centres unmarked) [Compound 898] |  |  |  |  |  | ≤ 100 nM | > 1000 nM | > 1000 nM | > 1000 nM | 100 to 500 nM
20 | CC[C@@H]1C(=O)N(C)c2cnc(Nc3ccc(C(=O)NC4CCN(CCCOCCCNCCC#Cc5cccc6c5CN(C5CCC(=O)NC5=O)C6=O)CC4)cc3OC)nc2N1C1CCCC1 (some centres unmarked) [Compound 906] |  |  |  |  |  | ≤ 100 nM | 100 to 1000 nM | ≤ 1000 nM | 300 to 1000 nM | 100 to 500 nM
21 | CC[C@@H]1C(=O)N(C)c2cnc(Nc3ccc(C(=O)NC4CCN(CCCNCCOCCCC#Cc5cccc6c5CN(C5CCC(=O)NC5=O)C6=O)CC4)cc3OC)nc2N1C1CCCC1 (some centres unmarked) [Compound 907] |  |  |  |  |  | ≤ 100 nM | ≤ 100 nM | ≤ 1000 nM | 300 to 1000 nM | 100 to 500 nM
22 | CC[C@@H]1C(=O)N(C)c2cnc(Nc3ccc(C(=O)NC4CCN(CCOCCCNCCC#Cc5cccc6c5CN(C5CCC(=O)NC5=O)C6=O)CC4)cc3OC)nc2N1C1CCCC1 (some centres unmarked) [Compound 908] |  |  |  |  |  | ≤ 100 nM | ≤ 100 nM | ≤ 1000 nM | 300 to 1000 nM | 100 to 500 nM
